Experimental data published in US10363245B2, “Methods for treating CNS lesions” (THE BOARD OF REGENTS OF THE UNIVERSITY OF TEXAS SYSTEM, priority 2017, dated 2019).

How the values were obtained:
MS patients [1] = assay: Stage 1A clinical study: single 1000 mg IV ACZ bolus, cerebral blood flow by pCASL MRI
healthy controls = settings: historical reports; cited from earlier work
MS patients [2] = assay: Stage 1B dose-escalation study: twice daily oral ACZ, cerebral blood flow by pCASL MRI, DTI and T2 relaxometry
[3] = Subj 001, oral 1000 mg BID for 2 weeks, versus baseline

SMILES: CC(=O)Nc1nnc(S(N)(=O)=O)s1 [ACZ, acetazolamide]
- time for global CBF to return near baseline (MS patients [1]; after IV ACZ, MS patients): 120 min
- change in global cerebral perfusion (pCASL) (MS patients [1]; following IV ACZ): Rapid increases
- duration of increases in CBF above baseline (MS patients [1]; single 1000 mg IV bolus, regardless of region): up to 180 minutes
- tolerability of single IV bolus (MS patients [1]; single bolus of IV ACZ, five MS patients): generally well tolerated without serious AEs
- time for cerebral blood flow (CBF) to return near baseline (healthy controls): ≤ 60 min
- CBF in the region with the larger T2 to T1 mismatch (qualitative pCASL) (MS patients [2]; [3]): increased
- qualitative DTI and T2 relaxometry measures (MS patients [2]; [3]): changed little
- potential for tachyphylaxis (MS patients [2]; oral, 1000 mg twice daily): limited if any potential for tachyphylaxis
- sustained increases in global CBF (MS patients [2]; oral, 1000 mg twice daily): 10-25%
- tolerability of oral ACZ (MS patients [2]; oral, 1000 mg twice daily): well tolerated, with minimal reported adverse events
